Assay results as given in BindingDB's records for doi:10.1124/jpet.102.035899 (University of Miami, 2002).
“And” between values parts separate entries of the source, which are not always exact repeats. Equal entries are not always repeated.

How the values were obtained:
[1] = target: neuronal acetylcholine receptor subunit alpha-2 (Xenopus tropicalis, UniProt A0A6I8T284)
[2] = target: neuronal acetylcholine receptor subunit alpha-4 (Xenopus sp., UniProt A9JRM3)
[3] = target: cholinergic receptor, nicotinic, alpha 1 (Muscle) isoform X1 (Xenopus sp., UniProt F6RLM5)
[4] = target: Cholinergic receptor, nicotinic alpha 1 (Xenopus sp., UniProt F6RLA9)
[5] = target: Cholinergic receptor nicotinic alpha 5 subunit (Xenopus sp., UniProt F7ELS1)
Chain of Cholinergic receptor nicotinic alpha 5 subunit (F7ELS1 whole entry): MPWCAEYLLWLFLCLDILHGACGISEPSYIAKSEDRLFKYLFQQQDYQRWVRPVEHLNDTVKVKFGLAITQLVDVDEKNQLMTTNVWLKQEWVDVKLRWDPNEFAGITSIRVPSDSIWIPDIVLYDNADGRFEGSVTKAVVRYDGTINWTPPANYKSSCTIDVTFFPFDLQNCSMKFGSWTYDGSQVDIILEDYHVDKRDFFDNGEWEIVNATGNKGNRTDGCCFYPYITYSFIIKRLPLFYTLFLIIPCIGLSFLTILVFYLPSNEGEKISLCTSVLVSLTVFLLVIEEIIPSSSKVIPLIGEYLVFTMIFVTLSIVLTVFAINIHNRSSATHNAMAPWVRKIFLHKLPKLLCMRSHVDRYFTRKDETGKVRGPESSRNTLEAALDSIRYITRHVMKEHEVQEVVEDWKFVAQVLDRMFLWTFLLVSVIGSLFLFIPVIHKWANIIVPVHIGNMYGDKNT

Chain of neuronal acetylcholine receptor subunit alpha-4 (A9JRM3 whole entry, canonical isoform): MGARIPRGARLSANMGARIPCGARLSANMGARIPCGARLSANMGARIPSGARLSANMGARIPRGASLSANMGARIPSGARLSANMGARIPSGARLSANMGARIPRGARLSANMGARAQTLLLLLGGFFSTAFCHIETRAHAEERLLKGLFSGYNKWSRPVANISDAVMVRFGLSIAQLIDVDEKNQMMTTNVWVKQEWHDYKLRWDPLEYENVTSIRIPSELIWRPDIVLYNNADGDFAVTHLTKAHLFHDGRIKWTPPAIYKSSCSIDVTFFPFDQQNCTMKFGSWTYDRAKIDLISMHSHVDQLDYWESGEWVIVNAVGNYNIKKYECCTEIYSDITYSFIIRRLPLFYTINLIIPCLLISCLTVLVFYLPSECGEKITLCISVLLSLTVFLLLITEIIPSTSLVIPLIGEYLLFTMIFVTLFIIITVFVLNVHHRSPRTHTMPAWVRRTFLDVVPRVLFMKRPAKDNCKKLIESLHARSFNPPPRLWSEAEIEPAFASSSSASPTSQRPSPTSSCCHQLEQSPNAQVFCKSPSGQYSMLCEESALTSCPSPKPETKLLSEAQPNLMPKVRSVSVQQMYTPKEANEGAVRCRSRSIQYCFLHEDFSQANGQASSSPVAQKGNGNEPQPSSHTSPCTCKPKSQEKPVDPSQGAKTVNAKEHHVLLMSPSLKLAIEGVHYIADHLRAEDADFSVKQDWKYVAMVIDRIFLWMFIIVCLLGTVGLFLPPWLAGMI
Chain of cholinergic receptor, nicotinic, alpha 1 (Muscle) isoform X1 (F6RLM5 whole entry, canonical isoform): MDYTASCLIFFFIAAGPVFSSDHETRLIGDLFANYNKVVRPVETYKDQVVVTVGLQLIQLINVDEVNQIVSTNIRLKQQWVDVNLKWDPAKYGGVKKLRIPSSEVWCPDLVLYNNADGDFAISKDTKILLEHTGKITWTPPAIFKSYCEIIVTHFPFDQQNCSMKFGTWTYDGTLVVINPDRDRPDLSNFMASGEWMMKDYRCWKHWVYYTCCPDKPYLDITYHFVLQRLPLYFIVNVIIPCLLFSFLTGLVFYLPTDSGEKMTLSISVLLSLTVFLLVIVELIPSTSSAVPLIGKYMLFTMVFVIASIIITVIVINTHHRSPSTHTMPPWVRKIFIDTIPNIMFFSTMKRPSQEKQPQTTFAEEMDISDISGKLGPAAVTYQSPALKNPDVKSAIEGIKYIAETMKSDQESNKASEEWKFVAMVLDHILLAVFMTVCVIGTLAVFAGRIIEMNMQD
Chain of Cholinergic receptor, nicotinic alpha 1 (F6RLA9 whole entry): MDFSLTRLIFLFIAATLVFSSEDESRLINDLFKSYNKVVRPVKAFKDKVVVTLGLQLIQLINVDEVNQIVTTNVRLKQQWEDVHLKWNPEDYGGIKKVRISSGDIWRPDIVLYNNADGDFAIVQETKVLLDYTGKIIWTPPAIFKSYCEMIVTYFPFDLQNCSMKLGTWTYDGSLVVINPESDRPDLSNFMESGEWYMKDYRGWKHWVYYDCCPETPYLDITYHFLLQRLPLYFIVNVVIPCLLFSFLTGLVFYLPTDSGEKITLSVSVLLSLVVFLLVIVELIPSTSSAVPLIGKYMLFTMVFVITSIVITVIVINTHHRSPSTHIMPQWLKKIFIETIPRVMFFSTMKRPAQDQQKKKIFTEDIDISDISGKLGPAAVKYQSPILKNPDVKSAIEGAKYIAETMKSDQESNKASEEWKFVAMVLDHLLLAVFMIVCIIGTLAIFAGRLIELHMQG
Chain of neuronal acetylcholine receptor subunit alpha-2 (A0A6I8T284 whole entry): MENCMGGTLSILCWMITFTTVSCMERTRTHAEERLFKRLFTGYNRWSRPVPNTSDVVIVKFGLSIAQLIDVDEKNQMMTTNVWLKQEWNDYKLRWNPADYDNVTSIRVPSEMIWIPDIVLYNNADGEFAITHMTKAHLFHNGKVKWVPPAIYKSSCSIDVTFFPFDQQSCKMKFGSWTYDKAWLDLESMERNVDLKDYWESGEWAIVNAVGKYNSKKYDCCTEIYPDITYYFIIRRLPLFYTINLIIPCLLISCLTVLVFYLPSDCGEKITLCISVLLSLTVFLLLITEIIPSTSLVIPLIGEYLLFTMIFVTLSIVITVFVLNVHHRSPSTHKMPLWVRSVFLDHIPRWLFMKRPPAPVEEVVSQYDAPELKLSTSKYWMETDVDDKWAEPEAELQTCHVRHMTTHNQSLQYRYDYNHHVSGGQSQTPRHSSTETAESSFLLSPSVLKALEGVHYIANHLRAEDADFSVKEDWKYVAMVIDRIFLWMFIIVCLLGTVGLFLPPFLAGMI

SMILES	Ki [1]	Ki [2]	Ki [3]	Ki [4]	Ki [5]
O=c1ccc([C@H]2CC3CCC2N3)c[nH]1 (some centres not stated)	100 nM	100 nM	100 nM	–	–
Clc1ccc([C@H]2CC3CCC2N3)cn1 (stereo partly drawn) [2-(6-Chloro-pyridin-3-yl)-7-aza-bicyclo[2.2.1]heptane(+/-) epibatidine]	87 nM	–	–	–	–
Brc1ccc([C@H]2CC3CCC2N3)cn1 (some centres not stated) [NBEP]	0.013 nM and 0.055 nM	0.01 nM	0.004 nM	0.044 nM	0.22 nM
CN(C)c1ccc([C@H]2CC3CCC2N3)cn1 (some centres not stated) [NDMNEP]	100 nM	100 nM	100 nM	–	–
c1cncc([C@H]2CC3CCC2N3)c1 (some centres not stated) [NEP]	–	0.0085 nM	0.0031 nM	3.2 nM	11 nM
Fc1ccc([C@H]2CC3CCC2N3)cn1 (some centres not stated) [NFEP]	–	0.0092 nM	0.0038 nM	0.48 nM	2.1 nM
Nc1ccc([C@H]2CC3CCC2N3)cn1 (some centres not stated) [NNEP]	–	0.35 nM	0.077 nM	4.3 nM	7.2 nM
O=S(=O)(Oc1ccc([C@H]2CC3CCC2N3)cn1)C(F)(F)F (some centres not stated) [NTEP]	10 nM	100 nM	100 nM	–	–
